Measured values from patent US20220313581A1, “NOVEL COMPOUNDS FOR SKIN LIGHTENING” (Conopco, Inc. , d/b/a UNILEVER, priority 2019, published 2022).

Tested on: Melanoderm human tissue (MEL-300-B, Mattek Corp.)
Assay: Melanoderm assay (melanin quantitation)
Type: cell-based
Settings: for Melanin content / skin lightening effect (in words): melanoderm treatment, 10 uM, compared to vehicle control; for Melanin (μg/μg protein): test compound 10 uM, 12 d dosing, melanin normalized to protein, mean +/− standard deviation, n = 3, vehicle control 0.240 +/− 0.020
Protocol: Control compounds consisted of a negative control (ultrapure water), vehicle control [Dimethylsulfoxide (DMSO) in ultrapure water—final concentration of 0.1%] and positive control (2% kojic acid in ultrapure water—final concentration of 700 uM). Test compounds where prepared in DMSO at 10 mM concentrations and diluted with EPI-100-LLMM media (Mattek Corp.) to a final concentration of 10 uM. Melanoderm human tissue (MEL-300-B, Mattek Corp.) was equilibrated with EPI-100-NMM media for 24 h, followed by equilibration with EPI-100-LLMM media for 48 h prior to treatment with test compounds and controls. Dosing and re-feeding of melanoderms with controls and test compounds continued for a total of 12 d following standard protocols and the melanoderms collected for melanin quantitation, viability analysis and macroscopic/microscopic imaging analysis. For melanin quantitation, tissues were suspended in phosphate buffer saline (PBS) buffer (5 ml) for 5 min, removed from the PBS and washed/rinsed with additional PBS (2 ml). Tissues were treated with 1% sodium bicarbonate solution (300 ul) for 30 min, followed by removal of the sodium bicarbonate solution and washed/rinsed with PBS solution (2×2 ml). Tissues were suspended in Solvable reagent (500 ul) and incubated at 95° C. for 24 h along with melanin standard samples (prepared by suspending melanin (cat #M8631, Sigma-Aldrich) in Solvable reagent to generate melanin standards at 0, 2.5, 5, 10, 25, 50 and 100 ug). All incubated samples were centrifuged at 13000 rpm for 5 min and the optical density of the supernatant was read/determined at 490 nm. The amount of melanin (ug) from each tissue sample was determined from the melanin standard samples calibration curve. Protein concentration of tissue samples was determined using the BCA protein assay kit (Pierce) and melanin content was normalized and expressed as melanin (ug)/protein (ug) (Table 1). Tissue viability as a result of test compound dosing/feeding relative to negative and vehicle controls was determined using the WST-1 reagent kit (cat #05015944001, Roche). Tissue images were examined macroscopically to assess the skin lightening ability of test compounds compared to negative, vehicle and positive controls and microscopically (10× magnification) to assess cytotoxicity.

| Structure (SMILES) | Melanin content / skin lightening effect (in words) | Melanin (μg/μg protein) |
| --- | --- | --- |
| CC(C)Oc1ccc(C(NC2CCC(CCO)CC2)c2ccccc2)cc1 (stereo not drawn) [Example 2, 2-(4-(((4-isopropoxyphenyl)(phenyl)methyl)amino)cyclohexyl)ethanol] | reduced melanin content | 0.076 +/− 0.012 μg/μg protein |
| CC(C)Oc1ccc(C(NC2CCC(O)CC2)C2CCCCC2)cc1 (stereo not drawn) [Example 1, 4-((cyclohexyl(4-isopropoxyphenyl)methyl)amino)cyclohexanol] | reduced melanin content | 0.158 +/− 0.006 μg/μg protein |
| CC1CCC(NC(c2ccccc2)c2ccc(OC(C)C)cc2)CC1 (stereo not drawn) [Example 3, N-((4-isopropoxyphenyl)(phenyl)methyl)-4-methylcyclohexanamine] | reduced melanin content | 0.144 +/− 0.006 μg/μg protein |
